Each molecule was assayed against human MGAT2 (Homo sapiens (Human), UniProt Q3SYC2) (assay: Test Example 1: Test of MGAT2 inhibitory action (human MGAT2 enzyme fraction from Sf9 cells, free CoA detected by CPM fluorescence)). Settings: human MGAT2 enzyme fraction expressed in Sf9 insect cells, 0.5 μg/ml, 2-monooleoyl glycerol 0.78 μM, oleoyl-CoA 5.3 μM, room temperature 20 min, listed as 10-4, read-out: Activity Value [nM] (IC50, concentration at which 50% of produced free CoA was inhibited).
Type: biochemical
Description: The MGAT2 inhibitory action of the inventive compound was measured by the methods described in Test Examples as shown below. The MGAT enzyme activity was measured based on the amount of an indicator, free Coenzyme A (CoA) which is generated by the reaction shown below, using a sulfhydryl reactive pigment (7-diethylamino-3-(4-maleimidophenyl)-4-methylcoumarin; hereinafter, sometimes abbreviated as CPM).
A test for MGAT2 inhibitory action of test compounds was conducted in accordance with a partially modified version of the method described in John F. Lockwood et al., Am. J. Physiol. Endocrinol. Metab., 2003, 285, E927.
Bac-to-Bac Baculovirus Expression System (Life Technologies Japan) was used to express human MGAT2 in insect cells (Sf9) (Life Technologies Japan). These cells were sonicated and centrifuged at 100,000 g×1 hr to give a precipitate. The precipitate was used as a human MGAT2 enzyme fraction in this assay.
This test was conducted using a black flat-bottom 96-well plate (Corning). A buffer solution with final concentrations of 5 mM magnesium chloride, 100 mM sucrose and 100 mM Tris-HCl (pH=7.5) was prepared and test compounds prepared in various concentrations using dimethyl sulfoxide were added thereto to give a final dimethyl sulfoxide concentration of 1%. The MGAT2 enzyme fraction was added thereto to give a final concentration of 0.5 μg/ml and phosphatidylcholine, 2-monooleoyl glycerol and oleoyl-CoA were added thereto to give final concentrations of 7.5 μM, 0.78 μM and 5.3 μM, respectively, before starting a reaction. The reaction was performed at room temperature for 20 min.
After 20 min, a CPM-containing solution was added thereto to give a final concentration of 5 μM before stopping the MGAT reaction. After 1 hr, a fluorescence detector (Infinite 200 from Tecan Japan) was used to measure the CPM fluorescence value of each well (excitation 380 nm, emission 460 nm).

human MGAT2, sequence (Q3SYC2 whole entry): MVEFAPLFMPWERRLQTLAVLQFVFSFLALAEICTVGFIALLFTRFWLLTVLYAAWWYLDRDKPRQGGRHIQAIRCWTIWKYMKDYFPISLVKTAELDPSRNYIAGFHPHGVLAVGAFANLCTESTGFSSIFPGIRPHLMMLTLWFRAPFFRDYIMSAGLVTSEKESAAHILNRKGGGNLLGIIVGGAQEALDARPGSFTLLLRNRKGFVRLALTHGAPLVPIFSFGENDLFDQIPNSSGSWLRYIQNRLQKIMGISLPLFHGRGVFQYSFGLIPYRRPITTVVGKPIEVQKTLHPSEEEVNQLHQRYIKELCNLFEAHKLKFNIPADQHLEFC

Row | Compound | IC50 [nM]
1 | CCCCCCOc1ccc(NS(=O)(=O)c2ccc3c(c2)CCN(C(C)Cc2ccc(C(C)(C)C)cc2)C3)c(F)c1 (single isomer, unassigned) [Working Example 10-4] | 39

Same assay, conditions: human MGAT2 enzyme fraction expressed in Sf9 insect cells, 0.5 μg/ml, 2-monooleoyl glycerol 0.78 μM, oleoyl-CoA 5.3 μM, room temperature 20 min, listed as 10-5, read-out: Activity Value [nM] (IC50, concentration at which 50% of produced free CoA was inhibited)

Row | Compound | IC50 [nM]
2 | CC(Cc1ccc(C(C)(C)C)cc1)N1CCc2cc(S(=O)(=O)Nc3ccc(CCCC4CCCC4)cc3F)ccc2C1 (single isomer, unassigned) [Working Example 10-5] | 25

Same assay, conditions: human MGAT2 enzyme fraction expressed in Sf9 insect cells, 0.5 μg/ml, 2-monooleoyl glycerol 0.78 μM, oleoyl-CoA 5.3 μM, room temperature 20 min, listed as 10-8, read-out: Activity Value [nM] (IC50, concentration at which 50% of produced free CoA was inhibited)

Row | Compound | IC50 [nM]
3 | CCCCCCCc1ccc(NS(=O)(=O)c2ccc3c(c2)CCN(C(C)Cc2ccc(C(C)(C)C)cc2)C3)c(F)c1 (single isomer, unassigned) [Working Example 10-8] | 62

Same assay, conditions: human MGAT2 enzyme fraction expressed in Sf9 insect cells, 0.5 μg/ml, 2-monooleoyl glycerol 0.78 μM, oleoyl-CoA 5.3 μM, room temperature 20 min, listed as 10-9, read-out: Activity Value [nM] (IC50, concentration at which 50% of produced free CoA was inhibited)

Row | Compound | IC50 [nM]
4 | CCCCCCCCOc1ccc(NS(=O)(=O)c2ccc3c(c2)CCN(C(C)Cc2ccc(C(C)(C)C)cc2)C3)c(F)c1 (centres unmarked) [Working Example 10-9] | 96

Same assay, conditions: human MGAT2 enzyme fraction expressed in Sf9 insect cells, 0.5 μg/ml, 2-monooleoyl glycerol 0.78 μM, oleoyl-CoA 5.3 μM, room temperature 20 min, listed as 10-13, read-out: Activity Value [nM] (IC50, concentration at which 50% of produced free CoA was inhibited)

Row | Compound | IC50 [nM]
5 | CC(Cc1ccc(C(C)(C)C)cc1)N1CCc2cc(S(=O)(=O)Nc3ccc(OCCCC4CCCCC4)cc3F)ccc2C1 (single isomer, unassigned) [Working Example 10-13] | 66

Same assay, conditions: human MGAT2 enzyme fraction expressed in Sf9 insect cells, 0.5 μg/ml, 2-monooleoyl glycerol 0.78 μM, oleoyl-CoA 5.3 μM, room temperature 20 min, read-out: Activity Value [nM] (IC50, concentration at which 50% of produced free CoA was inhibited)

Row | Compound | IC50 [nM]
6 | CCCCCCCCOc1ccc(NS(=O)(=O)c2ccc3c(c2)CCN(Cc2ccc(C(C)(C)C)nc2)C3)c(F)c1 [Working Example 6-33] | 26
7 | Cc1nc(-c2ccc(C(F)(F)F)cc2)sc1CN1CCc2cc(S(=O)(=O)Nc3ccc(CCCC4CCCC4)cc3F)ccc2C1 [Working Example 6-65] | 51
8 | CCCCCCOc1ccc(NS(=O)(=O)c2ccc3c(c2)CCN(CCc2ccc(C(C)(C)C)nc2)C3)c(F)c1 [Working Example 6-44] | 258
9 | CC(C)(C)c1cnc(CCN2CCc3cc(S(=O)(=O)Nc4ccc(CCCC5CCCC5)cc4F)ccc3C2)nc1 [Working Example 6-64] | 40
10 | CCCCCCOc1ccc(NS(=O)(=O)c2ccc3c(c2)CCN(CCc2cnc(C(C)(C)C)cn2)C3)c(F)c1 [Working Example 9-20] | 212
11 | CCCCCCOc1ccc(NS(=O)(=O)c2ccc3c(c2)CCN(Cc2ccc(C(C)(C)C)nc2)C3)c(F)c1 [Working Example 6-27] | 135
12 | CC(C)(C)c1ccc(CCN2CCc3cc(S(=O)(=O)Nc4ccc(OCCCc5ccccc5)cc4F)ccc3C2)cc1 [Working Example 8-2] | 173
13 | O=C(NC1CCCCC1)N1CCc2cc(S(=O)(=O)Nc3ccc(CCCC4CCCC4)cc3F)ccc2C1 [14-36] | 69
14 | CC(C)(C)c1ccc(CN2CCc3cc(S(=O)(=O)Nc4ccc(OCCCc5ccccc5)cc4F)ccc3C2)cn1 [Working Example 6-26] | 218
15 | CC(c1ccc(C(C)(C)C)nc1)N1CCc2cc(S(=O)(=O)Nc3ccc(OCCCc4ccccc4)cc3F)ccc2C1 (centres unmarked) [Working Example 11-2] | 121
16 | CC(C)(C)c1ccc(NC(=O)N2Cc3ccc(S(=O)(=O)Nc4ccc(OCCCCc5ccccc5)cc4F)cc3C2)cc1 [19-2] | 30
17 | CC(c1ccc(C(C)(C)C)cc1)N1CCc2cc(S(=O)(=O)Nc3ccc(OCCCc4ccccc4)cc3F)ccc2C1 (centres unmarked) [Working Example 11-3] | 116
18 | COc1cc(F)cc(F)c1NS(=O)(=O)c1ccc2c(c1)CN(C(=O)Nc1ccc(C(C)(C)C)cc1)C2 [14-21] | 193
19 | CC(C)(C)c1ccc(NC(=O)N2Cc3ccc(S(=O)(=O)Nc4ccc(OCCC5CC5)cc4F)cc3C2)cc1 [18-31] | 266
20 | CC(C)(C)c1ccc(NC(=O)N2Cc3ccc(S(=O)(=O)Nc4ccc(OCCCCOc5ccccc5)cc4F)cc3C2)cc1 [18-25] | 33
21 | CC(C)(C)c1ccc(NC(=O)N2CCc3cc(S(=O)(=O)Nc4ccc(OCCC5CCOCC5)cc4F)ccc3C2)cc1 [14-35] | 178
22 | CCCCCCOc1ccc(NS(=O)(=O)c2ccc3c(c2)CN(C(=O)Nc2ccc(C(C)(C)C)cc2)C3)c(F)c1 [18-6] | 43
23 | CC(C)(C)c1ccc(NC(=O)N2Cc3ccc(S(=O)(=O)Nc4ccc(OCCOc5ccc(F)cc5)cc4F)cc3C2)cc1 [18-19] | 125
24 | CC(C)CCCOc1ccc(NS(=O)(=O)c2ccc3c(c2)CN(C(=O)Nc2ccc(C(C)(C)C)cc2)C3)c(F)c1 [19-7] | 99
25 | O=S(=O)(Nc1ccc(CCCC2CCCC2)cc1F)c1ccc2c(c1)CCN(CCCC(F)(F)F)C2 [Working Example 7-54] | 162
26 | CC(C)(C)c1ccc(NC(=O)N2Cc3ccc(S(=O)(=O)Nc4ccc(OCCOc5ccccc5)cc4F)cc3C2)cc1 [18-18] | 136

Row | Compound | IC50 [nM]
27 | CC(C)(C)c1ccc(CCN2CCc3cc(S(=O)(=O)Nc4ccc(CCCCCc5ccccc5)cc4F)ccc3C2)cc1 [Working Example 6-28] | 53
28 | CC(C)(C)c1ccc(NC(=O)N2Cc3ccc(S(=O)(=O)Nc4ccc(OCCCC5CCCC5)cc4F)cc3C2)cc1 [19-3] | 4
29 | CC(C)(C)c1ccc(NC(=O)N2Cc3ccc(S(=O)(=O)Nc4ccc(OCC5CCCCC5)cc4F)cc3C2)cc1 [18-10] | 230
30 | CC(C)(C)c1ccc(CC(=O)N2CCc3cc(S(=O)(=O)Nc4ccc(OCCC5CCCCC5)cc4F)ccc3C2)cc1 [Working Example 4-1, 2-[(4-tert-Butylphenyl)acetyl]-N-[4-(2-cyclohexylethoxy)-2-fluorophenyl]-1,2,3,4-tetrahydroisoquinoline-6-sulfonamide] | 149
31 | CCCCCCCCOc1ccc(NS(=O)(=O)c2ccc3c(c2)CCN(CCc2ccc(C(C)(C)C)cc2)C3)c(F)c1 [17-2] | 45
32 | CC(C)(C)c1cnc(CN2CCc3cc(S(=O)(=O)Nc4ccc(CCCC5CCCC5)cc4F)ccc3C2)cn1 [Working Example 7-60] | 233
33 | O=S(=O)(Nc1ccc(CCCC2CCCC2)cc1F)c1ccc2c(c1)CCN(CCc1ccc(OC(F)(F)F)cc1)C2 [22-2] | 256
34 | CCCCCCCOc1ccc(NS(=O)(=O)c2ccc3c(c2)CN(C(=O)Nc2ccc(C(C)(C)C)cc2)C3)c(F)c1 [19-8] | 28
35 | C/C=C\CCCOc1ccc(NS(=O)(=O)c2ccc3c(c2)CN(C(=O)Nc2ccc(C(C)(C)C)cc2)C3)c(F)c1 [19-11] | 128
36 | CCCCCCCCOc1ccc(NS(=O)(=O)c2ccc3c(c2)CN(C(=O)Nc2ccc(C(C)(C)C)cc2)C3)c(F)c1 [18-7] | 7
37 | CC(C)(C)c1ccc(NC(=O)N2Cc3ccc(S(=O)(=O)Nc4ccc(OCCCOc5cccc(Cl)c5)cc4F)cc3C2)cc1 [18-24] | 62
38 | O=C(OC1CCCCC1)N1CCc2cc(S(=O)(=O)Nc3ccc(CCCC4CCCC4)cc3F)ccc2C1 [26-1, Cyclohexyl 6-{[4-(3-cyclopentylpropyl)-2-fluorophenyl]sulfamoyl}-3,4-dihydroisoquinoline-2(1H)-carboxylate] | 217
39 | O=C(c1ccc(C(F)(F)F)nc1)N1CCc2cc(S(=O)(=O)Nc3ccc(CCCC4CCCC4)cc3F)ccc2C1 [Working Example 1-5] | 154
40 | O=S(=O)(Nc1ccc(CCCC2CCCC2)cc1F)c1ccc2c(c1)CCN(Cc1ccc(C(F)(F)F)nc1)C2 [Working Example 6-54] | 180
41 | CCCCCCCc1ccc(NS(=O)(=O)c2ccc3c(c2)CCN(Cc2ccc(C(C)(C)C)nc2)C3)c(F)c1 [Working Example 6-32] | 31
42 | CC(C)(C)c1ccc(NC(=O)N2Cc3ccc(S(=O)(=O)Nc4ccc(OCCC5CCCC5)cc4F)cc3C2)cc1 [18-32] | 58
43 | CCCCCCCc1ccc(NS(=O)(=O)c2ccc3c(c2)CCN(Cc2ccc(C(F)(F)F)nc2)C3)c(F)c1 [Working Example 7-29] | 134
44 | CC(C)(C)c1ccc(CN2CCc3cc(S(=O)(=O)Nc4ccc(CCCC5CCCC5)cc4F)ccc3C2)cn1 [Working Example 6-31] | 31
45 | O=S(=O)(Nc1ccc(CCCC2CCCC2)cc1F)c1ccc2c(c1)CCN(Cc1cnc(C(F)(F)F)nc1)C2 [Working Example 6-78] | 228
46 | CC(C)(C)c1ccc(CN2CCc3cc(S(=O)(=O)Nc4ccc(OCCC5CCOCC5)cc4F)ccc3C2)cc1 [Working Example 6-66] | 203
47 | CC(C)(C)c1ccc(CCN2CCc3cc(S(=O)(=O)Nc4ccc(OCCC5CCOCC5)cc4F)ccc3C2)cc1 [17-7] | 79

— patent US9035059B2, “Nitrogen-containing condensed heterocyclic compound” (TAISHO PHARMACEUTICAL CO., LTD., priority 2011, dated 2015)
